“Also recorded” adds a separate entry of the source. Marks after values point to notes of the source that are not given here. Non-standard residues stand in square brackets, D forms with d. Residues, ends and D or L forms follow the SMILES beside them. *: point of attachment. Desaminotyrosyl = O=C(CCc1ccc(O)cc1)*; NMeY = CN[C@@H](Cc1ccc(O)cc1)C(=O)O; Agmatine = N=C(N)NCCCCN*; Nle = CCCC[C@H](N)C(=O)O; Orn = NCCC[C@H](N)C(=O)O; Abu = CC[C@H](N)C(=O)O
Assays:
GHRH receptor [1] = target: T1, GHRH receptor (Homo sapiens, UniProt Q02643); assay: Receptor binding in vitro, 125I-labeled [His1,Nle27]-hGHRH(1-32)NH2, membrane receptors of human anterior pituitary cells (Table 14); conditions: for Relative affinity (Binding potency) compared to JI-38: JI-38 = 1; for Relative affinity (Binding potency) compared to hGHRH(1-29): hGHRH(1-29)NH2 = 1
T1 sequence (Q02643 23-423): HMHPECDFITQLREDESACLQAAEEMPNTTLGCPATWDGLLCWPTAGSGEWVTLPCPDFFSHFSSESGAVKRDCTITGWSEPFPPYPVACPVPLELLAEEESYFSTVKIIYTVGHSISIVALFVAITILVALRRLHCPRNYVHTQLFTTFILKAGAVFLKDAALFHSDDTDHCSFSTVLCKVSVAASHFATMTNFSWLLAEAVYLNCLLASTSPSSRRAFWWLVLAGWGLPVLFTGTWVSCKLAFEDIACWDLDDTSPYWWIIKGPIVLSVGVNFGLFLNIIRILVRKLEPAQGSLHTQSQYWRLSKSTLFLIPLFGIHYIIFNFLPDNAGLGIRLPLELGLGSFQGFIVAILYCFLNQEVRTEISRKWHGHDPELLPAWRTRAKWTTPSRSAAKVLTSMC
Text: Normal human pituitary was purchased from the National Hormone and Peptide Program (UCLA Medical Center, Torrance, Calif.).

GH release = assay: GH releasing potency in vivo, subcutaneous administration (Example 14, Table 12); design: species or system rat; conditions: for Serum GH level at selected time after injection (ng/ml), 0 min / Serum GH level at selected time after injection (ng/ml), 15 min / Serum GH level at selected time after injection (ng/ml), 30 min: male rats, dose 3 μg/kg, mean ± SEM
How it was run: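 Potency is expressed relative to GHRH(1-29)NH2 and JI-38 (each = 1), via equivalent GHRH(1-29)NH2 dose read from a standard curve. Peptides in 5% mannitol given i.v. or s.c. to anaesthetised male Sprague-Dawley rats (200-250 g); serum GH measured by ELISA at selected times.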

[2] = test system: myocardial infarction (Fisher-344 rats); assay: Hemodynamic analysis (pressure-volume loops), body and heart weight after MI, compared to JI-38 (Example 15, Table 16); format: in vivo, rat; design: key to ESP (End-Systolic Pressure) / EDP (End-Diastolic Pressure) / ESV (End-Systolic Volume) / PRSW (Preload Recruitable Stroke Work) / Ees (End-systolic Elastance) / dP/dt max (peak rate of the pressure rise) / dP/dt max_EDV / dP/dt min / TAU (relaxation time constant calculated by Weiss method) / SV (Stroke Volume) / CO (Cardiac Output) / SW (Stroke Work) / EF / Ea/Ees / Ea (arterial Elastance): ↓: downward arrow denotes lower than JI-38; ↑: upward arrow denotes greater than JI-38; =denotes same as JI-38; ⬇⬇: double arrow denotes greater effect; ⬆⬆: double arrow denotes greater effect; conditions: for CO (Cardiac Output) / EDP (End-Diastolic Pressure) / EF / ESP (End-Systolic Pressure) / ESV (End-Systolic Volume) / Ea (arterial Elastance) / Ea/Ees / Ees (End-systolic Elastance) / PRSW (Preload Recruitable Stroke Work) / SV (Stroke Volume) / SW (Stroke Work) / TAU (relaxation time constant calculated by Weiss method) / dP/dt max (peak rate of the pressure rise) / dP/dt max_EDV / dP/dt min: rat MI model, s.c. twice daily, pressure-volume loops, expressed in comparison to JI-38
How it was run: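 Female 6-month-old Fisher-344 rats after permanent left coronary ligation received GHRH agonists subcutaneously twice daily from 2 h post-surgery (n=10/group). Under ketamine/xylazine/acepromazine anesthesia, LV pressure-volume loops were recorded via carotid micromanometer catheter, calibrated by hypertonic saline bolus and cuvette method; echocardiography also serial.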

GHRH receptor [3] = target: T1, GHRH receptor; assay: GHRH receptor binding, competition with 125I-labeled JV-1-42, human pituitary membrane homogenates (Table 7); design: Normal human pituitaries were purchased from the National Hormone and Peptide Program; tissue National Hormone and Peptide Program (A.F. Parlow, Harbor-UCLA Medical Center, Torrance, Calif.); host or cells: normal human pituitary, membrane fraction; conditions: for Relative affinity (Binding potency) vs JI-38: JI-38 = 1, Table 7
Text: Normal human pituitaries were purchased from the National Hormone and Peptide Program (A.F. Parlow, Los Angeles, County Harbor-UCLA Medical Center, Torrance, Calif.).

| SMILES | Relative affinity (Binding potency) compared to hGHRH(1-29) (GHRH receptor [1]) | Serum GH level at selected time after injection (ng/ml), 0 min (GH release; s.c.) | Serum GH level at selected time after injection (ng/ml), 15 min (GH release; s.c.) | Serum GH level at selected time after injection (ng/ml), 30 min (GH release; s.c., 30 min) | Relative potency compared to GHRH(1-29), 15 min (GH release; s.c.) | Relative potency compared to GHRH(1-29), 30 min (GH release; s.c., 30 min) | CO (Cardiac Output) [2] | EDP (End-Diastolic Pressure) [2] | EF [2] | ESP (End-Systolic Pressure) [2] | ESV (End-Systolic Volume) [2] | Ea (arterial Elastance) [2] | Ea/Ees [2] | Ees (End-systolic Elastance) [2] | PRSW (Preload Recruitable Stroke Work) [2] | SV (Stroke Volume) [2] | SW (Stroke Work) [2] | TAU (relaxation time constant calculated by Weiss method) [2] | dP/dt max (peak rate of the pressure rise) [2] | Relative affinity (Binding potency) vs JI-38 (GHRH receptor [3]) | further results |
| --- | --- | --- | --- | --- | --- | --- | --- | --- | --- | --- | --- | --- | --- | --- | --- | --- | --- | --- | --- | --- | --- |
| CCCC[C@H](NC(=O)[C@@H](NC(=O)[C@H](CC(=O)O)NC(=O)[C@H](CCC(N)=O)NC(=O)[C@H](CC(C)C)NC(=O)[C@H](CC(C)C)NC(=O)[C@H](CCCN)NC(=O)[C@H](CCCNC(=N)N)NC(=O)[C@H](C)NC(=O)[C@H](CO)NC(=O)[C@H](CC(C)C)NC(=O)[C@H](CCC(N)=O)NC(=O)[C@H](CC)NC(=O)[C@H](CC(C)C)NC(=O)[C@@H](NC(=O)[C@H](CCCN)NC(=O)[C@H](CCCNC(=N)N)NC(=O)[C@H](Cc1ccc(O)cc1)NC(=O)[C@H](CO)NC(=O)[C@H](CCC(N)=O)NC(=O)[C@@H](NC(=O)[C@H](Cc1ccccc1)NC(=O)[C@@H](NC(=O)[C@H](C)NC(=O)[C@H](CC(=O)O)NC(=O)[C@@H](C)NC(=O)[C@H](Cc1ccc(O)cc1)NC)[C@@H](C)CC)[C@@H](C)O)C(C)C)[C@@H](C)CC)C(=O)N[C@@H](CC(=O)O)C(=O)N[C@@H](CCCNC(=N)N)C(=O)NC [Peptide P-27403, [N—Me-Tyr^1, D-Ala^2, Gln^8, Orn^12, Abu^15, Orn^21, Nle^27, Asp^28]hGHRH(1-29)NH—CH3] (H-[NMeY][dA]DAIFTQSYR[Orn]VL[Abu]QLSAR[Orn]LLQDI[Nle]DR-NHMe) | 10.30 | 39.4 ± 5.3 ng/mL | 608.7 ± 35.3 ng/mL | 281.7 ± 18.6 ng/mL | 223.8 | 448.9 | ↑ | ↑ | = | = | ↑ | = | ↓ | = | = | = | = | = | = | 27.19 | Relative affinity (Binding potency) compared to JI-38 (GHRH receptor [1]; listed as MR-403): 3.69; GHRH receptor binding affinity (in words) (GHRH receptor [1]; compared to JI-38): highest GH-releasing potency and binding affinity; potency as compared to JI-38 in both i.v. and s.c. tests (GH release; both i.v. and s.c. tests): increased potency as compared to JI-38; Relative GH-releasing potency compared to JI-38 in s.c. tests (fold, range over time points) (GH release; s.c., time not specified): 3.6-4.0; GH-releasing potency after s.c. administration (in words) (GH release; s.c., listed as MR-403): highest GH-releasing potency; also recorded: significantly higher potencies at 30 minutes than at 15 minutes; dP/dt max_EDV [2]: =; dP/dt min [2]: = |
| CCCC[C@H](NC(=O)[C@@H](NC(=O)[C@H](CC(=O)O)NC(=O)[C@H](CCC(N)=O)NC(=O)[C@H](CC(C)C)NC(=O)[C@H](CC(C)C)NC(=O)[C@H](CCCN)NC(=O)[C@H](CCCNC(=N)N)NC(=O)[C@H](C)NC(=O)[C@H](CO)NC(=O)[C@H](CC(C)C)NC(=O)[C@H](CCC(N)=O)NC(=O)[C@H](CC)NC(=O)[C@H](CC(C)C)NC(=O)[C@@H](NC(=O)[C@H](CCCN)NC(=O)[C@H](CCCNC(=N)N)NC(=O)[C@H](Cc1ccc(O)cc1)NC(=O)[C@H](CO)NC(=O)[C@H](CC(N)=O)NC(=O)[C@@H](NC(=O)[C@H](Cc1ccccc1)NC(=O)[C@@H](NC(=O)[C@H](C)NC(=O)[C@H](CC(=O)O)NC(=O)[C@@H](C)NC(=O)[C@H](Cc1ccc(O)cc1)NC)[C@@H](C)CC)[C@@H](C)O)C(C)C)[C@@H](C)CC)C(=O)N[C@@H](CC(=O)O)C(=O)N[C@@H](CCCNC(=N)N)C(=O)NC [Peptide P-27409, [N—Me-Tyr^1, D-Ala^2, Orn^12, Abu^15, Orn^21, Nle^27, Asp^28]hGHRH(1-29)NH—CH3] (H-[NMeY][dA]DAIFTNSYR[Orn]VL[Abu]QLSAR[Orn]LLQDI[Nle]DR-NHMe) | 7.57 | 18.9 ± 3.1 ng/mL | 427.4 ± 62.4 ng/mL | 256.7 ± 20.7 ng/mL | 141.3 | 380.6 | ⬆⬆ | ↑ | ⬆⬆ | ↑ | = | = | ↓ | ⬆⬆ | ⬆⬆ | = | = | = | ⬆⬆ | 4.10 | Relative affinity (Binding potency) compared to JI-38 (GHRH receptor [1]): 2.71; GH-releasing potency after s.c. administration (in words) (GH release; s.c.): significantly higher potencies at 30 minutes than at 15 minutes; Relative potency compared to JI-38, 15 min (GH release; s.c.): 2.24*; PRSW, index of contractility ([2]; after MI): markedly increased; dP/dt max_EDV [2]: =; dP/dt min [2]: = |
| CCCC[C@H](NC(=O)[C@@H](NC(=O)[C@H](CC(=O)O)NC(=O)[C@H](CCC(N)=O)NC(=O)[C@H](CC(C)C)NC(=O)[C@H](CC(C)C)NC(=O)[C@H](CCCN)NC(=O)[C@H](CCCNC(=N)N)NC(=O)[C@H](C)NC(=O)[C@H](CO)NC(=O)[C@H](CC(C)C)NC(=O)[C@H](CCC(N)=O)NC(=O)[C@H](CC)NC(=O)[C@H](CC(C)C)NC(=O)[C@@H](NC(=O)[C@H](CCCN)NC(=O)[C@H](CCCNC(=N)N)NC(=O)[C@H](Cc1ccc(O)cc1)NC(=O)[C@H](CO)NC(=O)[C@H](CCC(N)=O)NC(=O)[C@@H](NC(=O)[C@H](Cc1ccccc1)NC(=O)[C@@H](NC(=O)[C@H](C)NC(=O)[C@H](CC(=O)O)NC(=O)[C@H](C)NC(=O)CCc1ccc(O)cc1)[C@@H](C)CC)[C@@H](C)O)C(C)C)[C@@H](C)CC)C(=O)N[C@@H](CC(=O)O)C(=O)NCCCCNC(=N)N [JI-38, [Dat^1, Gln^8, Orn^12,21, Abu^15, Nle^27, Asp^28, Agm^29]hGHRH(1-29)NH2, reference compound] (Desaminotyrosyl-ADAIFTQSYR[Orn]VL[Abu]QLSAR[Orn]LLQDI[Nle]D-Agmatine) | 2.79 | 33.2 ± 2.8 ng/mL | 230.0 ± 15.1 ng/mL | 128.7 ± 13.3 ng/mL | 63.1 | 111.8 | – | – | – | – | – | – | – | – | – | – | – | – | – | 1 | Relative affinity (Binding potency) compared to JI-38 (GHRH receptor [1]): 1.00; Relative potency compared to JI-38, 15 min (GH release; s.c.): 1.00; Relative potency compared to JI-38, 30 min (GH release; s.c., 30 min): 1.00; IC50 (GHRH receptor [3]; 125I-JV-1-42, human pituitary membranes, Table 7): 4.35 nM |

Reference: US10555987B2, “GHRH agonists for the treatment of ischemic disorders” (UNIVERSITY OF MIAMI, priority 2012, dated 2020)
